The record followed here is US20260028354A1, “TETRAHYDRONAPHTHALENE DERIVATIVES AS ESTROGEN RECEPTOR DEGRADERS” (REGENT OF THE UNIVERSITY OF MICHIGAN, priority 2022, published 2026).

Structures can show the parent of a compound that is named as a salt. Where two headings read alike, the source gives them in different places. A value given as a limit tells only on which side of the number the result lay.

One test has as its target ER in MCF-7 cells (Homo sapiens (Human), UniProt P03372). Description: In-cell Western (ICW) ER degradation assay in MCF-7 cells. Format: cell-based. Conditions: for DC50: MCF-7, ER degradation, read-out: MCF7 DC50.
A further test deals with CRBN/DDB1 (Homo sapiens (Human), UniProt Q96SW2). The class given is binding. The note with it: His tagged CRBN+DDB1, Cy5-labeled Thalidomide probe, one hour; read-out: CRBN HTRF IC50. Here is the method:
The binding potency was determined using HTRF assay technology (Perkin Elmer). Compounds were serially diluted in DMSO and […] volume was transferred to white 384-well plate.

For another test, the target named is ER in T47D cells (Homo sapiens (Human), UniProt P03372). In words: In-cell Western (ICW) ER degradation assay in T47D cells. Format: cell-based. The note with it: for DC50: ER degradation.
Chain of ER in T47D cells (P03372 whole entry): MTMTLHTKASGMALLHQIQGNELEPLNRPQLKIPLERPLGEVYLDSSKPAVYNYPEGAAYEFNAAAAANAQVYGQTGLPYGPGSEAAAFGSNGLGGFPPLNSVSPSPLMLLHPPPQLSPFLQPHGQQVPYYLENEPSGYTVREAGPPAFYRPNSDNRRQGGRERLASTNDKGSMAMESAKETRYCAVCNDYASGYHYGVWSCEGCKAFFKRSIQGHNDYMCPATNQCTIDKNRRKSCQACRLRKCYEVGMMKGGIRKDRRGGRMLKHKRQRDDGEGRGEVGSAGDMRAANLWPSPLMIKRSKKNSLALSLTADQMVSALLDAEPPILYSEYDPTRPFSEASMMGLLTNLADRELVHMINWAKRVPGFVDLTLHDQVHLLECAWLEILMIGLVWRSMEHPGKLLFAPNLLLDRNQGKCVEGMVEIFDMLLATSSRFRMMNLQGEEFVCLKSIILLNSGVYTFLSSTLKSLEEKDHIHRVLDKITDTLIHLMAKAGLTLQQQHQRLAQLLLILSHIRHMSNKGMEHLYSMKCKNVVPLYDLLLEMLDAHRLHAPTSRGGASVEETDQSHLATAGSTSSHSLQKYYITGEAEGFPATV
Where [1] appears, read: MCF7, MCF-7, maximal ER degradation, 16 hrs treatment, read-out: MCF7 Dmax.
Setting [2] is: maximal ER degradation, 16 hrs treatment, read-out: T47D Dmax.

Chain of ER in MCF-7 cells (P03372 whole entry): as above
Chain of CRBN/DDB1 (Q96SW2 whole entry, species assumed): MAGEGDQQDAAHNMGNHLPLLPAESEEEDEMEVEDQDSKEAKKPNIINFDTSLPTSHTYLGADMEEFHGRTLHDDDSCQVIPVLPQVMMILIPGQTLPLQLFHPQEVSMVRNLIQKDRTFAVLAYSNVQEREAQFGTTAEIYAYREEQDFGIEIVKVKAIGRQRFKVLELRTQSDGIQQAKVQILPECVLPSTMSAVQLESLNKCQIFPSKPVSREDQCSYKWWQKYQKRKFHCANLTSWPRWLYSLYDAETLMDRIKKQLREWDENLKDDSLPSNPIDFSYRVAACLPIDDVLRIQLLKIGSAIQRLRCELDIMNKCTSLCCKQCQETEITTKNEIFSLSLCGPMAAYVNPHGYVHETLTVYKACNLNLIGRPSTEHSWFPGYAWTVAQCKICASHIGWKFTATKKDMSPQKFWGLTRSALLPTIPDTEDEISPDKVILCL
Chain of CRBN/DDB1 (Q16531 whole entry partner, species assumed): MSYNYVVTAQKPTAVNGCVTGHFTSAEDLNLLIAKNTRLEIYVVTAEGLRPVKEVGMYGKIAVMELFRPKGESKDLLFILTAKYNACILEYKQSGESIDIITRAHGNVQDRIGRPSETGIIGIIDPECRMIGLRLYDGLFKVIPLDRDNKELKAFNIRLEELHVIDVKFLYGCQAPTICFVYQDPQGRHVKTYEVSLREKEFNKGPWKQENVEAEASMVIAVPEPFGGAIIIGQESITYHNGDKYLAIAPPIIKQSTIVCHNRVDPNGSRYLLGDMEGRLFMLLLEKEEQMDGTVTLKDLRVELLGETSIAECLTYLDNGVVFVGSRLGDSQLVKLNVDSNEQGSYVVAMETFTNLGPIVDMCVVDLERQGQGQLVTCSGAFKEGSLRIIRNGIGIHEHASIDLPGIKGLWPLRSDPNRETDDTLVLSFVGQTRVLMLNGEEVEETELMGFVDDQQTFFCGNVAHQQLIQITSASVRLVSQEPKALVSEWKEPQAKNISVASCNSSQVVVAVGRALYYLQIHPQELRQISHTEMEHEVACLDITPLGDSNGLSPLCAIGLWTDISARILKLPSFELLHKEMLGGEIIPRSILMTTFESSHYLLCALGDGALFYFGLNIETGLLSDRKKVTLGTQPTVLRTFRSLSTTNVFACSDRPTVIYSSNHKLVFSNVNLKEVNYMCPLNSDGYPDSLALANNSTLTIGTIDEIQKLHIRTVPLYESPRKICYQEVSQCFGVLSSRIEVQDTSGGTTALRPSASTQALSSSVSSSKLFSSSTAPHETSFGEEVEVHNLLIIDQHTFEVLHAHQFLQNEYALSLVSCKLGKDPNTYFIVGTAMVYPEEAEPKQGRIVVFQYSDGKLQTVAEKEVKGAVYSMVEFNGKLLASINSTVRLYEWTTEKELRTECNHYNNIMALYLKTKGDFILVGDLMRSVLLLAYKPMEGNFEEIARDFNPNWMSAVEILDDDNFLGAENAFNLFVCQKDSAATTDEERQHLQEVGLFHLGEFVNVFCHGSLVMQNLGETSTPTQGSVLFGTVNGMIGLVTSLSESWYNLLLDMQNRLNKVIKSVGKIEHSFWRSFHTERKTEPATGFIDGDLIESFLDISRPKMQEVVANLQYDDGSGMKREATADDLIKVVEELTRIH

By Dmax is commonly meant the greatest extent of degradation seen. For orientation: DC50 means the midpoint of the concentration-degradation curve. What is called IC50 is the concentration needed to halve the response being measured. As for `O=C1CCC(NC(=O)c2ccc(N3CCN(CC4CCN(c5ccc([C@@H]6c7ccc(O)cc7CC[C@@H]6c6ccccc6)cc5)CC4)CC3)cn2)C(=O)N1` (stereo partly drawn) [Compound A58, N-(2,6-dioxopiperidin-3-yl)-5-(4-((1-(4-((1R,2S)-6-hydroxy-2-phenyl-1,2,3,4-tetrahydro-naphthalen-1-yl)phenyl)piper-idin-4-yl)methyl)piperazin-1-yl)picolinamide], the Dmax at ER in MCF-7 cells (setting [1]) is greater than 75%; at ER in T47D cells (setting [2]) it was 50 to 75%. Besides, the DC50 on ER in MCF-7 cells (16 hrs treatment) and at ER in T47D cells (16 hrs treatment) was less than 1 nM each time. In addition, the IC50 on CRBN/DDB1 was greater than 5000 nM.
Regarding `O=C1CC[C@H](N2Cc3cc4c(cc3C2=O)OCC42CCN(CC3CC4(CCN(c5ccc([C@@H]6c7ccc(O)cc7CC[C@@H]6c6ccccc6)cn5)CC4)C3)CC2)C(=O)N1` [Compound A126, (S)-3-(1′-((7-(5-((1S,2S)-6-hydroxy-2-phenyl-1,2,3,4-tetra-hydronaphthalen-1-yl)pyridin-2-yl)-7-azaspiro[3.5]nonan-2-yl)methyl)-7-oxo-5,7-dihydro-2H,6H-spiro[furo[2,3-f]iso-indole-3,4′-piperidin]-6-yl)-piperidine-2,6-dione], the DC50 on ER in MCF-7 cells (16 hrs treatment) and at ER in T47D cells (16 hrs treatment) was less than 1 nM in each case. Further, at ER in MCF-7 cells (MCF-7, maximal ER degradation, 16 hrs treatment), the “MCF7 Dmax” value is “B (“B”: >50 and <75%)”. The IC50 at CRBN/DDB1 was in the range of 50 to 500 nM. Further, the “T47D Dmax” value on ER in T47D cells (maximal ER degradation, 16 hrs treatment) is on record as “A (“A”: >=75%)”.
As for `COc1cc(N2CCC3(CC2)CC(CN2CCN4c5cc6c(cc5OC[C@@H]4C2)C(=O)N([C@H]2CCC(=O)NC2=O)C6)CO3)ccc1[C@@H]1c2ccc(O)cc2CC[C@@H]1c1ccccc1` (stereo partly drawn) [Compound A57, (3S)-3-((4aS)-3-((8-(4-((1S,2S)-6-hydroxy-2-phenyl-1,2,3,4-tetrahydronaphthalen-1-yl)-3-methoxyphenyl)-1-oxa-8-aza-spiro[4.5]decan-3-yl)methyl)-8-oxo-1,2,3,4,4a,5,8,10-octa-hydro-9H-pyrazino[1′,2′:4,5] [1,4]oxazino[2,3-f]isoindol-9-yl)pipcridinc-2,6-dionc], the Dmax lay within 25 to 50% on ER in MCF-7 cells (setting [1]) and 50 to 75% at ER in T47D cells (setting [2]). The DC50 was 10 to 100 nM at ER in MCF-7 cells (16 hrs treatment) and 1 to 10 nM at ER in T47D cells (16 hrs treatment). In addition, on CRBN/DDB1, the IC50 was 50 to 500 nM.
For `O=C1CC[C@@H](Nc2ccc(C3CCN(C[C@@H]4COC5(CCN(c6ccc([C@@H]7c8ccc(O)cc8CC[C@@H]7c7ccccc7)cc6)CC5)C4)CC3)c(F)c2)C(=O)N1` (single isomer, unassigned) [Compound A62], the Dmax at ER in MCF-7 cells (setting [1]) and at ER in T47D cells (setting [2]) was 25 to 50% in each case. For the same compound, the DC50 on ER in MCF-7 cells (16 hrs treatment) was in the range of 10 to 100 nM; at ER in T47D cells (16 hrs treatment), 1 to 10 nM. Moreover, the IC50 on CRBN/DDB1 lay in the range of 50 to 500 nM.
With `O=C1CC[C@H](Nc2ccc(C3CCN(C[C@H]4COC5(CCN(c6ccc([C@H]7c8ccc(O)cc8CC[C@H]7c7ccccc7)cc6)CC5)C4)CC3)cc2)C(=O)N1` (single isomer, unassigned) [Compound A49], the Dmax on ER in MCF-7 cells (setting [1]) and on ER in T47D cells (setting [2]) was 50 to 75% in each case. For the same compound, the DC50 at ER in MCF-7 cells (16 hrs treatment) and at ER in T47D cells (16 hrs treatment) was less than 1 nM each time. For the same compound, the IC50 at CRBN/DDB1 lay in the range of 50 to 500 nM.
As for `O=C1CC[C@H](Nc2ccc(C3CCN(C[C@H]4COC5(CCN(c6ccc([C@@H]7c8ccc(O)cc8CC[C@@H]7c7ccccc7)cc6)CC5)C4)CC3)cc2)C(=O)N1` (single isomer, unassigned) [Compound A27], the Dmax was 25 to 50% on ER in MCF-7 cells (setting [1]) and less than 25% at ER in T47D cells (setting [2]). Moreover, the DC50 was 10 to 100 nM on ER in MCF-7 cells (16 hrs treatment) and greater than 100 nM on ER in T47D cells (16 hrs treatment). Besides, at CRBN/DDB1, the IC50 lay in the range of 50 to 500 nM.
Regarding `COc1cc(N2CCC(CN3CCN4c5ccc6c(c5OC[C@@H]4C3)CN([C@@H]3CCC(=O)NC3=O)C6=O)CC2)ccc1[C@@H]1c2ccc(O)cc2CC[C@@H]1c1ccccc1` (stereo in doubt) [Compound A23, (R)-3-((S)-7-((1-(4-((1S,2S)-6-hydroxy-2-phenyl-1,2,3,4-tetrahydronaphthalen-1-yl)-3-methoxyphenyl)piperidin-4-yl)methyl)-1-oxo-1,3,5,5a,6,7,8,9-oCtahydro-2H-pyrazino [1′,2′:4,5][1,4]oxazino[2,3-e]isoindol-2-yl)piperidine-2,6-dione], the Dmax lay in the range of 25 to 50% at ER in MCF-7 cells (setting [1]) and 50 to 75% at ER in T47D cells (setting [2]). Further, the DC50 on ER in MCF-7 cells (16 hrs treatment) and on ER in T47D cells (16 hrs treatment) was 10 to 100 nM throughout. In addition, on CRBN/DDB1, the IC50 is less than 50 nM.
Regarding `COc1cc(N2CCC3(CC2)CC(CN2CCN4c5ccc6c(c5OC[C@H]4C2)CN([C@H]2CCC(=O)NC2=O)C6=O)C3)ccc1[C@@H]1c2ccc(O)cc2CC[C@@H]1c1ccccc1` (single isomer, unassigned) [Compound A10], the Dmax on ER in MCF-7 cells (setting [1]) and at ER in T47D cells (setting [2]) was greater than 75% each time. Moreover, the DC50 at ER in MCF-7 cells (16 hrs treatment) and at ER in T47D cells (16 hrs treatment) was less than 1 nM each time. Besides, on CRBN/DDB1, the IC50 was less than 50 nM.
Consider `O=C1CC[C@@H](Nc2ccc(C3CCN(C[C@@H]4COC5(CCN(c6ccc([C@@H]7c8ccc(O)cc8CC[C@@H]7c7ccccc7)cc6)CC5)C4)CC3)cc2)C(=O)N1` (single isomer, unassigned) [Compound A29], for which the Dmax on ER in MCF-7 cells (setting [1]) and on ER in T47D cells (setting [2]) was 25 to 50% throughout. In addition, the DC50 at ER in MCF-7 cells (16 hrs treatment) and at ER in T47D cells (16 hrs treatment) was 10 to 100 nM each time. Besides, the IC50 on CRBN/DDB1 was in the range of 50 to 500 nM.
In the case of `COc1cc(N2CCC(CN3CCC4(CC3)COc3c4ccc4c3CN([C@H]3CCC(=O)NC3=O)C4=O)CC2)ccc1[C@H]1c2ccc(O)cc2CC[C@H]1c1ccccc1` [Compound A36, (R)-3-(1′-((1-(4-((1S,2S)-6-hydroxy-2-phenyl-1,2,3,4-tetrahydronaphthalen-1-yl)-3-methoxyphenyl)piperidin-4-yl)methyl)-6-oxo-6,8-dihydro-2H,7H-spiro[furo[2,3-e]iso-indole-3,4′-piperidin]-7-yl)-piperidine-2,6-dione formate], the Dmax on ER in MCF-7 cells (MCF7, read-out: MCF7 Dmax, MCF-7, maximal ER degradation, 16 hrs treatment) was 50 to 75%; at ER in T47D cells (read-out: T47D Dmax, T47D, maximal ER degradation, 16 hrs treatment) it was 25 to 50%. The DC50 at ER in MCF-7 cells (16 hrs treatment) and on ER in T47D cells (16 hrs treatment) was less than 1 nM throughout. The IC50 at CRBN/DDB1 is less than 50 nM.
On to `COc1cc(N2CCC3(CC2)CC(CN2CCN4c5ccc(C(=O)N[C@H]6CCC(=O)NC6=O)nc5OC[C@H]4C2)C3)c(F)cc1[C@@H]1c2ccc(O)cc2CC[C@@H]1c1ccccc1` [Compound A111, (R)-N-((S)-2,6-dioxopiperidin-3-yl)-3-((7-(2-fluoro-4-((1S,2S)-6-hydroxy-2-phenyl-1,2,3,4-tetrahydronaphthalen-1-yl)-5-methoxyphenyl)-7-azaspiro[3.5]nonan-2-yl)methyl)-1,2,3,4,4a,5-hexahydropyrazino[1,2-d]pyrido[2,3-b][1,4]oxazine-8-carboxamide], for which the figures for the Dmax at ER in MCF-7 cells (setting [1]) and on ER in T47D cells (setting [2]) were 50 to 75% and greater than 75%, respectively. Also, the DC50 at ER in MCF-7 cells (16 hrs treatment) and on ER in T47D cells (16 hrs treatment) was 1 to 10 nM each time. On CRBN/DDB1, the IC50 was greater than 5000 nM.
As for `O=C1CC[C@H](N2Cc3c(ccc4c3OC[C@H]3CN(CC5CC6(CCN(c7ccc([C@H]8c9ccc(O)cc9CC[C@H]8c8ccccc8)cn7)CC6)C5)CCN43)C2=O)C(=O)N1` (single isomer, unassigned) [Compound A113], the Dmax at ER in MCF-7 cells (setting [1]) and on ER in T47D cells (setting [2]) was 25 to 50% in each case. Further, the DC50 on ER in MCF-7 cells (16 hrs treatment) and on ER in T47D cells (16 hrs treatment) was 10 to 100 nM in each case. For the same compound, the IC50 at CRBN/DDB1 fell in the range of 50 to 500 nM.
As for `O=C1CC[C@H](NC(=O)c2ccc3c(n2)OC[C@H]2CN(C[C@@H]4COC5(CCN(c6ccc([C@H]7c8ccc(O)cc8CC[C@H]7c7ccccc7)cc6)CC5)C4)CCN32)C(=O)N1` (single isomer, unassigned) [Compound A16], the Dmax at ER in MCF-7 cells (setting [1]) and on ER in T47D cells (setting [2]) was 50 to 75% throughout. Also, the figures for the DC50 at ER in MCF-7 cells (16 hrs treatment) and at ER in T47D cells (16 hrs treatment) were 1 to 10 nM and less than 1 nM, respectively. In addition, the IC50 on CRBN/DDB1 was 500 to 5000 nM.
As to `COc1cc(N2CCC3(CC2)CC(CN2CCN4c5ccc(C(=O)N[C@H]6CCC(=O)NC6=O)nc5OC[C@@H]4C2)C3)c(F)cc1[C@@H]1c2ccc(O)cc2CC[C@@H]1c1ccccc1` [Compound A104, (S)-N-((S)-2,6-dioxopiperidin-3-yl)-3-((7-(2-fluoro-4-((1S,2S)-6-hydroxy-2-phenyl-1,2,3,4-tetrahydronaphthalen-1-yl)-5-methoxyphenyl)-7-azaspiro[3.5]nonan-2-yl)methyl)-1,2,3,4,4a,5-hexahydropyrazino[1,2-d]pyrido[2,3-b][1,4]oxazine-8-carboxamide], the Dmax is 50 to 75% on ER in MCF-7 cells (setting [1]) and greater than 75% on ER in T47D cells (setting [2]). Further, the DC50 was 1 to 10 nM at ER in MCF-7 cells (16 hrs treatment) and less than 1 nM at ER in T47D cells (16 hrs treatment). The IC50 at CRBN/DDB1 is greater than 5000 nM.
Take `O=C1CC[C@H](N2Cc3cc4c(cc3C2=O)OC[C@H]2CN(C[C@@H]3COC5(CCN(c6ccc([C@H]7c8ccc(O)cc8CC[C@H]7c7ccccc7)cc6)CC5)C3)CCN42)C(=O)N1` [Compound A20, (S)-3-((R)-3-(((R)-8-(4-((1S, 2R)-6-hydroxy-2-phenyl-1,2,3,4-tetrahydronaphthalen-1-yl)phenyl)-1-oxa-8-azaspiro [4.5]decan-3-yl)methyl)-8-oxo-1,2,3,4,4a,5,8,10-oCtahydro-9H-pyrazino[1′,2′:4,5][1,4]oxazino[2,3-f]isoindol-9-yl)-piperidine-2,6-dione]: the Dmax on ER in MCF-7 cells (setting [1]) and at ER in T47D cells (setting [2]) was 50 to 75% throughout. In addition, the DC50 on ER in MCF-7 cells (16 hrs treatment) and on ER in T47D cells (16 hrs treatment) was less than 1 nM throughout. Besides, the IC50 on CRBN/DDB1 lay in the range of 50 to 500 nM.
